Test results as given in ChEMBL document CHEMBL5604062, “ASAP - ZIKV NS2B-NS3 protease fluorescence dose response” (2024).
Several values for one entry are separate records, joined by “and”; a condition that tells them apart may be missing. Equal values may be shown once.

target: Nonstructural protein 3 (Zika virus, UniProt A0A024AXB9); experiment: Functional biochemical assay to identify treatments for viral infectious disease that targets Zika NS2B-NS3 protease. Utilizing a direct enzyme activity measurement method, reading the fluorescence intensity is used to characterize the relative potency of inhibitors as IC50.; parameters: species or system PRVABC59
Sequence (A0A024AXB9 whole entry): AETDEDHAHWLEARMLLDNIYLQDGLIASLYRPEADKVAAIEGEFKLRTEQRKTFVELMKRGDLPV

Row | SMILES | IC50
1 | N#C[C@]1(Nc2ccc3c(c2)CNC3)C(=O)Nc2ccccc21 | 27.4 µM
2 | CC(C)c1cc(-c2ccc3[nH]c(C(=O)O)cc3c2)cc(S(N)(=O)=O)c1 | > 99.5 µM
3 | CCc1cc(C(=O)Nc2ccc3c(c2)CNC3)sc1-c1ccc(Cl)cc1 | > 99.5 µM
4 | CC(C)(C)OC(=O)NCc1cc(NC(=O)c2cc(Cl)cc(NC(=O)OCc3ccccc3)c2)cc(-c2nn[nH]n2)c1 | 11.5 µM
5 | NCCCCc1ccc(NC(=O)c2cc(Cl)cc3[nH]ncc23)cc1 | 19.9 µM
6 | O=C(Nc1ccc2c(c1)CNCC2)c1cc(Cl)cc2[nH]ncc12 | 0.504 µM
7 | Cc1c(C(=O)Nc2cc(CCCN)ccn2)cc(C(C)C)n1C | > 99.5 µM
8 | O=C(O)c1cc2cc(-c3cccc([C@H]4CNCCO4)c3)ccc2[nH]1 | > 99.5 µM
9 | O=C(O)Cc1c[nH]c2cc(-c3cc(Cl)cc(NC(=O)OCc4ccccc4)c3)ccc12 | > 99.5 µM
10 | CC(C)(C)c1cc(Br)cc(C(=O)Nc2ccc3c(c2)CNC3)c1 | 0.356 µM
11 | O=C(Nc1ccc2c(c1)CNC2)c1cc(Cl)cc(-n2cccc2)c1 | 0.091 µM and 0.084 µM
12 | Cc1oc2nc(-c3cc(Cl)cc(NC(=O)OCc4ccccc4)c3)ccc2c1C(=O)O | > 99.5 µM
13 | CN1Cc2ccc(NC(=O)c3cc(Cl)cc4[nH]ncc34)cc2C1 | 0.832 µM
14 | Cc1cc(CN)cc(NC(=O)c2cc(Cl)cc3[nH]ncc23)c1 | 0.736 µM
15 | O=C(O)C[C@H]1CN(c2ccc(-c3cc(Cl)cc(NC(=O)OCc4ccccc4)c3)cn2)CCO1 | > 99.5 µM
16 | CC(C)NC(=O)[C@H](Nc1ccc2c(c1)CNC2)c1cc(Cl)cc2[nH]ncc12 | 0.086 µM and 0.054 µM and 0.124 µM and 0.138 µM and 0.089 µM
17 | O=C1CCc2c(cc(Cl)cc2-c2ccc3[nH]c(C(=O)O)cc3c2)N1 | > 99.5 µM
18 | O=C(Nc1ccc2c(c1)CNC2)c1cc(Br)cc2ccccc12 | 0.206 µM
19 | NCCc1ccc(NC(=O)c2cc(Cl)cc3[nH]ncc23)cc1 | 3.78 µM
20 | Cc1c(C(=O)NCc2ccc(CN)cc2)cc(C2CC2)n1C | > 99.5 µM
21 | O=C(Nc1cc(Cl)cc(-c2cnn(Cc3ccc(C(=O)O)cc3)c2)c1)OCc1ccccc1 | 39.4 µM
22 | C=C1C[C@H](c2cc(Cl)cc(NC(=O)OCc3ccccc3)c2)[C@@H](c2cccc(-c3nn[nH]n3)c2)C1 | 18.9 µM

Row | SMILES | IC50
23 | O=C(Nc1ccc2c(c1)CNC2)c1cc(Cl)cc(C2CC2)c1 | 0.216 µM
24 | NCc1cc(NC(=O)c2cc(Cl)cc(NC(=O)OCc3ccccc3)c2)cc(-c2csc(CC(=O)O)c2)c1 | 15 µM
25 | O=C(Nc1ccc2c(c1)CNC2)c1cc(Cl)cc2c1CCC2 | 0.159 µM
26 | Cc1c(C(=O)Nc2cc(-c3ccccn3)c(Br)cn2)cc(C2CC2)n1C | > 99.5 µM
27 | O=C(O)c1cc2cc(-c3cc(Cl)cc4ncccc34)ccc2[nH]1 | 40.3 µM
28 | O=C(O)c1cc2cccc(Cc3c[nH]c4ccc(Cl)cc34)c2[nH]1 | > 99.5 µM
29 | Nc1cc(Cl)cc(C(=O)Nc2ccc3c(c2)CNC3)c1N | 0.354 µM
30 | O=C(Nc1ccc2c(c1)CNC2)c1n[nH]c(=O)c2ccccc12 | 22.4 µM
31 | O=C1OCc2ccc(NC(=O)c3cc(Cl)cc4[nH]ncc34)cc21 | 32.3 µM
32 | Clc1ccc2[nH]cc(Cc3ccc4c(c3)CNC4)c2c1 | > 99.5 µM
33 | O=C(Nc1ccc2c(c1)CNC2)c1n[nH]c2ncc(Br)cc12 | 46.1 µM
34 | Cc1c(C(=O)Nc2cc(-c3cnn(C)c3)ccn2)cc(C2CC2)n1C | > 99.5 µM
35 | N#Cc1cc(-c2ccc3[nH]c(C(=O)O)cc3c2)c2nc[nH]c2c1 | > 99.5 µM
36 | CCCc1sc(C(=O)Nc2ccc3c(c2)CNC3)cc1CC | 20.1 µM
37 | Cc1c(C(=O)Nc2cc(C(N)=O)c3ccccc3n2)cc(C2CC2)n1C | > 99.5 µM
38 | O=C(Nc1ccc2c(c1)CNC2)c1ccccn1 | 57.3 µM
39 | N#Cc1ccc(Cl)c(C(=O)Nc2ccc3c(c2)CNC3)c1 | 1.99 µM
40 | O=C(O)c1nc(Cc2c[nH]c3ccc(Cl)cc23)c2ccccn12 | > 99.5 µM
41 | Cc1cc(CC(=O)O)ccc1Cc1c[nH]c2ccc(Cl)cc12 | > 99.5 µM
42 | O=C(Nc1ccc2c(c1)CNC2)c1ccnc(CO)c1 | > 99.5 µM
43 | Cc1c(C(=O)Nc2cc(C(=O)N(C)C)ccn2)cc(C2CC2)n1C | > 99.5 µM
44 | NCc1cc(NC(=O)c2cc(Cl)cc(NC(=O)OCc3ccccc3)c2)cc(-c2cccc(CC(=O)O)c2)c1 | 39.6 µM

Row | SMILES | IC50
45 | O=C(Nc1ccc([C@H]2CCNC2)cc1)c1cc(Cl)cc2[nH]ncc12 | 2.51 µM
46 | C=CC[C@H](Nc1ccc2c(c1)CNC2)c1cc(Cl)cc2[nH]ncc12 | 7.93 µM
47 | O=C(Nc1ccc2c(c1)CNC2)c1cccnc1 | 16.6 µM
48 | O=C(O)c1cc2cc(-c3cc(Cl)cc4c3CCNC4=O)ccc2[nH]1 | > 99.5 µM
49 | O=C(O)c1cc2cc(-c3cccc([C@H]4COCCN4)c3)ccc2[nH]1 | > 99.5 µM
50 | CC(C)c1cc(Br)cc(C(=O)Nc2ccc3c(c2)CNC3)c1 | 0.393 µM
51 | O=C(O)c1cc2cc(-c3cc(Cl)c4[nH]c(=O)oc4c3)ccc2[nH]1 | 90.2 µM
52 | O=C(Nc1ccc2c(c1)CNC2)c1cccc2[nH]ncc12 | 0.129 µM
53 | N[C@H]1CC[C@H](c2ccc(NC(=O)c3cc(Cl)cc4[nH]ncc34)cc2)C1 | 8.51 µM
54 | CNC(=O)[C@]1(Nc2ccc3c(c2)CNC3)C(=O)Nc2ccccc21 | > 99.5 µM
55 | Cc1ccc(C(C)C)c(C(=O)Nc2ccc3c(c2)CNC3)c1 | 3.72 µM
56 | O=C(Nc1ccc2c(c1)CNC2)c1cc(Br)cc2c1OCO2 | 0.848 µM
57 | O=C(O)COc1cc2c(cc1Cc1c[nH]c3ccc(Cl)cc13)OCO2 | > 99.5 µM
58 | Clc1ccc2c(c1)ncn2Cc1ccc(-c2nn[nH]n2)cc1 | > 99.5 µM
59 | NCCCc1ccnc(NC(=O)c2csc(C3CC3)n2)c1 | > 99.5 µM
60 | O=C(O)c1nccn2ncc(Cc3c[nH]c4ccc(Cl)cc34)c12 | > 99.5 µM
61 | Cc1ccc(-c2cc(CN)cc([C@@H]3C[C@H]3c3cc(Cl)cc(NC(=O)OCc4ccccc4)c3)c2)cn1 | 3.56 µM
62 | O=C(Nc1ccc2c(c1)CNC2)[C@H]1CCc2ccccc21 | > 99.5 µM
63 | O=C(Nc1ccc2c(c1)CNC2)c1ccncc1 | > 99.5 µM
64 | Cc1[nH]c2ccc(Cl)cc2c1Cc1ccc(-c2nnn[nH]2)cc1 | > 99.5 µM
65 | COC(=O)c1cc(Br)cc2c(Cc3ccc(-c4nnn[nH]4)cc3)c[nH]c12 | > 99.5 µM
66 | O=C1Cc2cc(NC(=O)c3cc(Cl)cc4[nH]ncc34)ccc2N1 | > 99.5 µM

Row | SMILES | IC50
67 | O=C(Nc1ccc2c(c1)OCO2)c1cc(Cl)cc2[nH]ncc12 | > 99.5 µM
68 | Cc1c(C(=O)O)sc2ncc(Cc3c[nH]c4ccc(Cl)cc34)cc12 | 97.2 µM
69 | O=C(O)c1cc(Cc2c[nH]c3ccc(Cl)cc23)cc(C2CC2)n1 | > 99.5 µM
70 | O=C(Nc1ccc(C2CNC2)cc1)c1cc(Cl)cc2[nH]ncc12 | 1.22 µM
71 | Cn1ncc2c(C(=O)Nc3ccc4c(c3)CNC4)cc(Br)cc21 | 0.274 µM
72 | CNC(=O)[C@H](Nc1cc(CNC(=O)OC(C)(C)C)cc(C(=O)O)c1)c1cc(Cl)cc(C2CC2)c1 | > 99.5 µM
73 | O=C(O)[C@H]1C[C@H](n2ccc(Cc3c[nH]c4ccc(Cl)cc34)n2)C1 | > 99.5 µM
74 | CNC(=O)[C@]1(Nc2ccc3c(c2)CNC3)CCc2ccc(Cl)cc21 | 34.6 µM
75 | CCc1nc2c(C(=O)Nc3ccc4c(c3)CNC4)cc(Br)cc2[nH]1 | 0.187 µM
76 | O=C(Nc1cccc([C@@H]2C[C@H]2C(=O)O)c1)c1cc(Cl)cc2[nH]ncc12 | > 99.5 µM
77 | Clc1ccc2nc(C3CCOCC3)n(Cc3ccc4c(c3)CNC4)c2c1 | > 99.5 µM
78 | C=CC[C@H](Nc1cccc(C2(C(=O)O)CCC2)c1)c1cc(Cl)cc(NC(=O)OCc2ccccc2)c1 | 33.8 µM
79 | CC(C)c1nc2cc(Cl)ccc2n1Cc1ccc(-c2nn[nH]n2)cc1 | > 99.5 µM
80 | c1ccc2c(Cc3ccc(-c4nnn[nH]4)cc3)c[nH]c2c1 | > 99.5 µM
81 | Nc1ccc(NC(=O)c2cc(Cl)cc3[nH]ncc23)cn1 | > 99.5 µM
82 | O=C(Nc1ccc2c(c1)C[C@H](O)C2)c1cc(Cl)cc2[nH]ncc12 | > 99.5 µM
83 | N[C@H]1CCc2cc(NC(=O)c3cc(Cl)cc4[nH]ncc34)ccc21 | 5.21 µM
84 | N#Cc1cc(-c2ccc3[nH]c(C(=O)O)cc3c2)cc(N2CCCC2)c1 | > 99.5 µM
85 | O=C1CCc2cc(NC(=O)c3cc(Cl)cc4[nH]ncc34)ccc2N1 | > 99.5 µM
86 | CNc1c(-c2cc(Cl)cc(C3CC3)c2)nc2cc(C(=O)O)ccn12 | > 99.5 µM
87 | O=C(O)c1nn(-c2ccccc2)cc1Cc1c[nH]c2ccc(Cl)cc12 | > 99.5 µM
88 | Cc1c(C(=O)Nc2cc(C#N)c3ccccc3n2)cc(C2CC2)n1C | > 99.5 µM

Row | SMILES | IC50
89 | O=C(Nc1cc(Cl)cc(-c2cc(NCc3ccccc3)c(C(=O)O)cn2)c1)OCc1ccccc1 | 14 µM
90 | CNc1c(-c2cc(Cl)cc(C3CC3)c2)nc2cccc(C(=O)O)n12 | > 99.5 µM
91 | N#Cc1cccc(C[C@H](O)c2cc(Cl)cc(NC(=O)OCc3ccccc3)c2)c1 | > 99.5 µM
92 | O=C(Nc1ccc(C2CCNCC2)cc1)c1cc(Cl)cc2[nH]ncc12 | 9.21 µM
93 | Cc1cc(-c2ccc3[nH]c(C(=O)O)cc3c2)c2cc[nH]c(=O)c2c1 | > 99.5 µM
94 | O=C(O)c1ccc(Cc2c[nH]c3ccc(Cl)cc23)cc1 | > 99.5 µM
95 | CC(C)c1nc2c(C(=O)Nc3ccc4c(c3)CNC4)cc(Br)cc2[nH]1 | 0.316 µM
96 | N#C[C@]1(Nc2cccc(-c3nn[nH]n3)c2)C(=O)Nc2ccc(Cl)cc21 | > 99.5 µM
97 | O=Cc1ccc(N2CCC(C(=O)Nc3cccc(Br)n3)CC2)cc1 | 24.7 µM
98 | O=Cc1ccc(N2CCC(C(=O)NCCc3ccc(O)c(O)c3)CC2)cc1 | 55.9 µM
99 | O=C(O)CCCn1cnc(-c2cc(Cl)cc(NC(=O)OCc3ccccc3)c2)n1 | > 99.5 µM
100 | O=C(O)c1cc2cc(-c3nccc(C(F)F)n3)ccc2[nH]1 | > 99.5 µM
101 | O=Cc1ccc(N2CCC(C(=O)NCc3cccc(-c4ccccc4)c3)CC2)cc1 | > 99.9 µM
102 | CNc1ncc(C(F)(F)F)cc1-c1ccc2[nH]c(C(=O)O)cc2c1 | > 99.5 µM
103 | O=Cc1ccc(N2CCC(C(=O)NCCN3CCc4ccccc43)CC2)cc1 | 25 µM
104 | COc1cc(-c2cc(Cl)cc(NC(=O)OCc3ccccc3)c2)c(OC)cc1CC(=O)O | 94.2 µM
105 | OCC#C[C@H](Nc1ccc2c(c1)CNC2)c1cc(Cl)cc2[nH]ncc12 | 1.1 µM
106 | Cc1ccc2cccc(NC(=O)C3CCN(c4ccc(C=O)cc4)CC3)c2n1 | 30.3 µM
107 | O=Cc1ccc(N2CCC(C(=O)Nc3ncc(Br)cc3O)CC2)cc1 | 54 µM
108 | NC(=O)C1(N2CCCCC2)CCN(C(=O)C2CCN(c3ccc(C=O)cc3)CC2)CC1 | 57.5 µM
109 | Cn1cc(-c2cc(CN)cc([C@@H]3C[C@H]3c3cc(Cl)cc(NC(=O)OCc4ccccc4)c3)c2)cn1 | 13.3 µM
